From US11896589B2, “Diazinyl amino acridines and medical uses thereof” (MyCural Therapeutics AB, priority 2018, dated 2024)
Counter-ions that a name gives are not always drawn.

What was measured:
[1] = tested on: MYCN-amplified neuroblastoma cells (SK-N-DZ, Kelly, IMR-32); experiment: Assay 5A neuroblastoma cell growth (WST-1), MYCN-amplified; type: cell-based; conditions: Homo sapiens
Method: (§1) FIG. 6: A-B) Neuroblastoma cell lines with (SK-N-DZ, Kelly and IMR-32) or without (SK-N-F1, SK-N-RA and SK-N-AS) MYCN-amplification were exposed to different concentrations of Example 1, Example 2 and control compound, respectively, for 48 hours. Cell growth and viability was estimated by measuring metabolic activity. C) Growth of TGR-1 (wt), HO15.19 (MYC knockout) and HOmyc3 (MYC reconstituted HO15.19) Rat1 fibroblasts, as measured by the WST-1 assay after treatment with Example 1. Data are shown as mean±standard deviation of 3-5 biological experiments, each with 3 technical repeats.
(§2) Assay 5A: Neuroblastoma Cell Growth
(§3) Neuroblastoma cell lines with (SK-N-DZ, Kelly and IMR-32) or without (SK-N-F1, SK-N-RA and SK-N-AS) MYCN-amplification were exposed to different concentrations of example compounds for 48 hours. Cell growth and viability was estimated by measuring metabolic activity by incubating cells in triplicates with WST-1 (Roche) in medium at 37° C. and 5% CO2 for 2 hours after which absorbance was measured with an Omega Fluostar (BMG Labtech) in a 96 well plate format.

[2] = target: T1, MYCbHLHZip (Homo sapiens, UniProt P01106); experiment: Assay 2B MYC SPR assay; type: binding; conditions: equilibrium binding experiments
T1 construct: An amino coupling procedure was used to immobilize MYCbHLHZip protein on a CM5 sensor chip
Method: FIG. 3: A) SPR assay to determine affinity of Example 1 to MYC. MYC bHLHZip protein was immobilized by aminocoupling on a CM5 sensor chip. Example 1 was injected at various concentrations in a kinetic experiment. The reference surface was subtracted from the analyte surface to generate a sensorgram. […] B) Four MYC equilibrium binding experiments with Example 1 summarized in an equilibrium binding plot. […] Equilibrium binding experiments of MYC with Example 2 and control compound (non-binder) were plotted as well. Assay 2B. MYC SPR Assay To analyze the direct binding of compounds to MYC, the direct binding of compounds to MYC was detected by surface plasmon resonance (SPR) as described above (Biological example 1—Assay 1B). An amino coupling procedure was used to immobilize MYCbHLHZip protein on a CM5 sensor chip (GE Healthcare) resulting in immobilization levels of approximately 800 respectively 1000 RU. The compounds were injected at different concentrations, one at a time, over the surface for 50-80 seconds with a flow rate of 30 μl/min. Afterwards the compounds were allowed to dissociate for 240 seconds in running buffer (137 mM NaCl, 2.7 mM KCl, 10 mM Na2HPO4, 1.8 mM KH2PO4, 0.005% Tween-20, 1% DMSO, pH 7.4). To remove all remaining analyte the surface was regenerated with 2M Urea for 30 seconds and thereafter 1M NaCl, 2.7 mM KCl, 10 mM Na2HPO4, 1.8 mM KH2PO4, 1% DMSO, pH 7.4 for 30 seconds. Sensorgrams were generated by subtraction of the reference (blank immobilized) surface. Binding responses were related to respective compounds' Rmax. Rmax is the maximum response of a compound when it binds with a 1:1 stochiometry to the protein; Rmax=(MW analyte/MW ligand)×immobilized ligand level on the chip (RU) x stoichiometry (1:1). Kinetic experiments were carried out where recombinant MYC bHLHZip was immobilized on the chip and different concentrations of Example 1 were injected as above. […] Example 2-6 were analyzed for their MYC binding properties by equilibrium binding experiments as described for example 1.

[3] = tested on: non-MYCN-amplified neuroblastoma cells (SK-N-F1, SK-N-RA, SK-N-AS); experiment: Assay 5A neuroblastoma cell growth (WST-1), non-MYCN-amplified; type: cell-based; conditions: Homo sapiens, SK-N-AS
Method: as §1, §2, §3

[4] = tested on: Tgr and H0Myc3 Rat1 fibroblast cells; experiment: Assay 5B Tgr cell growth (WST-1), MYC expressing; type: cell-based, rat; conditions: Tgr/H0Myc3 vs H015.19
Method: as §1
Assay 5B: Tgr Cell Growth
Tgr cells were treated at 37° C. and 5% CO2 at 48 hours with Example and Example 2. H015.19 is a MYC null rat cell line derived from Tgr1 (parental cells), while H0Myc3 cells were generated from the MYC null cells by reconstitution of a MYC gene(Mateyak, M. K., Obaya, A. J., Adachi, S. & Sedivy, J. M. Phenotypes of c-Myc-deficient rat fibroblasts isolated by targeted homologous recombination. Cell Growth Differ 8, 1039-1048 (1997)).

[5] = target: T2, MYC:MAX (MYC-GLuc-C + MAX-GLuc-N) in HEK293 cells (Homo sapiens, UniProt P01106); experiment: Assay 3C GLuc complementation assay; type: cell-based; conditions: HEK293
T2 construct: expressed in transfected cells; host or cells: HEK293 (also COS-7)
Method: FIG. 4: A) Endogenous MYC:MAX (upper panel) and FRA1:JUN (lower panel) interactions as visualized as fluorescent red dots by isPLA. Nuclei were counterstained with DAPI (blue). Cells were treated with 10 μM of indicated compounds for 16 hours and subjected to isPLA using pairs of MYC and MAX and of FRA1 and JUN antibodies, respectively. As negative control, primary antibody pairs but only one oligo-conjugated secondary antibody was used. B) Quantification of MYC:MAX and C) FRA1:JUN isPLA, representing an average number of nuclear dots per cell from three microscopic fields normalized to corresponding values for DMSO-treated cells. […] 1st-4th lanes from top; coimmunoprecipitated MAX, immunoprecipitated MYC, total levels of MAX and ACTIN, respectively, as determined by western blot analysis. E) MYC:MAX GLuc assay in cells. […] 24 hours later cells were treated with […] of Example 1, Example 2 and control compound for 16 hours and thereafter analyzed in a dual luciferase assay. The ratio of Gaussia/Firefly luciferase luminescence were calculated and normalized to DMSO-treated cells.
The protein fragment complementation assay using the Gaussia luciferase (GLuc) has been described (Remy, I. & Michnick, S. W. A highly sensitive protein-protein interaction assay based on Gaussia luciferase. Nat Methods 3, 977-979, doi:10.1038/nmeth979 (2006)). […] 24 hours later cells were treated with compound or DMSO. After another 17 hours the cells were harvested and lyzed in passive lysis buffer (Promega) supplemented with complete protease inhibitor (Roche). After 60 min incubation at room temperature 20 μM D-luciferin was added (substrate of Firefly luciferase) and luminescence was measured in a Lumat LB9501 (Berthold) or OmegaFluostar (BMG Labtech) luminometer. Directly after, the Gaussia luciferase substrate Coelenterazine (Promega) was added to a final concentration of 20 μM and the luciferase activity was measured. The ratio between Gaussia and Firefly luciferase values were calculated and normalized to DMSO-treated control cells.

T1 sequence (P01106 368-449 limits assumed): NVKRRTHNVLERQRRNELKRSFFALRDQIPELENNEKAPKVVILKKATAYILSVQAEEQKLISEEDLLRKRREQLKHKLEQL
T2 sequence (P01106 whole entry): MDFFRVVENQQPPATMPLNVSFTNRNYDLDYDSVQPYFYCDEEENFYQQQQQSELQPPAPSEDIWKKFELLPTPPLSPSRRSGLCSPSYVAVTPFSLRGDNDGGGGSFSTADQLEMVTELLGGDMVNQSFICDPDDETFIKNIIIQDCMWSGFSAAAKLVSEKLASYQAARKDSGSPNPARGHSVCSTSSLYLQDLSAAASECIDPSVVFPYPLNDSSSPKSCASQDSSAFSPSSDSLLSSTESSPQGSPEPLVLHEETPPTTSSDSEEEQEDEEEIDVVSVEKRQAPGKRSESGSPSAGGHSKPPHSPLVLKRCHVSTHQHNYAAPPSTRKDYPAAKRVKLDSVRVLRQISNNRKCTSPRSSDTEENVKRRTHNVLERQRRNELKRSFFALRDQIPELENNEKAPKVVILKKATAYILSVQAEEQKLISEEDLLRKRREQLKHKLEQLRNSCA

SMILES	GI50 ([1]; second run)	Binding relative to Rmax [2]	GI50 ([3]; second run)	GI50 ([1]; first run, 48 hours)	inhibition at 10 µM [5]	GI50 ([3]; 48 h, first run)	discrimination between cells dependent on MYC status [4]
CCOc1ccc2nc3cc(/N=N/c4cc(C)c(O)c(C)c4)ccc3c(N)c2c1 [Example 6, 4-((9-amino-7-ethoxyacridin-3-yl)diazenyl)-2,6-dimethylphenol]	1 µM	0.8 Response Units	> 25 µM				
CCOc1ccc2nc3cc(/N=N/c4ccc(O)c(CN(C)C)c4)ccc3c(N)c2c1 [Example 12, 4-[(E)-2-(9-amino-7-ethoxyacridin-3-yl)diazen-1-yl]-2-((dimethylamino)methyl)phenol]	25 µM						
CCOc1ccc2nc3cc(/N=N/c4ccc(O)c(CNCCN(C)C)c4)ccc3c(N)c2c1 [Example 8, 4-[(E)-(9-amino-7-ethoxy-acridin-3-yl)azo]-2-[[2-(dimethylamino)ethylamino]methyl]phenol hydrochloride]	4 µM		10 µM				
CCOc1ccc2nc3cc(/N=N/c4cc(C)c(O)cc4C)ccc3c(N)c2c1 [Example 2, 4-((9-amino-7-ethoxyacridin-3-yl)diazenyl)-3,6-dimethylphenol]	2.5 µM	1.2 Response Units	10 µM	4 µM	65%	12.5 µM	discriminated between cells dependent on MYC status
CCOc1ccc2nc3cc(/N=N/c4ccc(O)c(CN(C)CCN(C)C)c4)ccc3c(N)c2c1 [Example 9, 4-[(E)-(9-amino-7-ethoxy-acridin-3-yl)azo]-2-[[2-(dimethylamino)ethyl-methyl-amino]methyl]phenol]	6 µM		11 µM				

Now from value to compound, other results behind:

GI50 ([1]; second run)	Binding relative to Rmax [2]	GI50 ([3]; second run)	GI50 ([1]; first run, 48 hours)	inhibition at 10 µM [5]	GI50 ([3]; 48 h, first run)	SMILES	discrimination between cells dependent on MYC status [4]
2 µM	1.5 Response Units	> 25 µM				CCOc1ccc2nc3cc(/N=N/c4c(C)cc(O)cc4C)ccc3c(N)c2c1 [Example 3, 4-((9-amino-7-ethoxyacridin-3-yl)diazenyl)-3,5-dimethylphenol hydrate]	
15 µM						CCOc1ccc2nc3cc(/N=N/c4ccc(O)c(CO)c4)ccc3c(N)c2c1 [Example 10, 4-[(E)-2-(9-amino-7-ethoxyacridin-3-yl)diazen-1-yl]-2-(hydroxymethyl)phenol]	
